From US9018250B2, “Pharmaceutical composition and dosage form comprising dronedarone, and preparation method thereof” (Sanofi, priority 2010, dated 2015)
In brackets after ≈: the same amount, converted by molar mass. Like-named read-outs stand apart in the source and are kept apart here.

Tests used:
[1] = Solubility of dronedarone hydrochloride and base form in lipid excipients (Table A); assay type: physicochemical
[2] = In-vitro dissolution test with a jump in pH (simulated gastric pH 4, then simulated intestinal pH 6.5); assay type: physicochemical; settings: for percentage of active principle released (dissolution curves, in words): pH 4 for 60 min, then pH 6.5 up to 180 min, FIG. 1-7
Excerpt: In order to reproduce the effect of pH on the active principle and in particular on its dissolution during its passage through the gastrointestinal tract, a gastrointestinal environment was simulated by reproducing the pH of the stomach and then the pH of the intestine with a jump in pH. The dissolution kinetics was investigated using a simple in-vitro dissolution test with a jump in pH.
The principle consists of determining the dissolution of the formulated active principle by studying its dissolution kinetics at 37° C., firstly in simulated gastric medium at pH 4, then in simulated intestinal medium at pH 6.5, in a time interval consistent with the gastrointestinal tract.
Equipment: precision balance (Mettler AE200 or AT261), pH meter (Knick or Schott Geräte or Inolab), thermostated Dissolutest 6 or 7 bowls (Sotax AT6 or AT7), 5 μm filter (PALL Versapore 25 mm) with syringe (Térumo), UV spectrophotometer (Gilford Response II or Perkin Elmer) or HPLC (Merck or Agilent).
Dissolution media: The simulated physiological media representative of the gastrointestinal tract are obtained from simulated gastric and intestinal fluids recommended by the USP, but used without pepsin or pancreatin. • simulated gastric fluid—USP (without pepsin): • 2 g of sodium chloride per 900 ml of distilled water, • pH adjusted to 1.2 with concentrated hydrochloric acid (37%), • Q.S. 1000 ml with distilled water. • simulated intestinal fluid—USP (without pancreatin): • 6.8 g of potassium dihydrogen phosphate per 900 ml of distilled water, • pH adjusted to 7.5 with concentrated sodium hydroxide (10 M), • Q.S. 1000 ml with distilled water.
The simulated gastric medium of pH 4 is thus obtained by mixing the two simulated fluids in various proportions, monitoring with a pH electrode. The dissolution medium of the intestinal type is adjusted to pH 6.5 with a few drops of concentrated soda (10M) to simulate passage of the active principle into the beginning of the intestine, without leading to dilution.
Standard solutions of active principle are prepared in a solvent medium, preferably in the mobile phase or ethanol or methanol, and then analyzed at the characteristic wavelength of the active principle. A calibration straight line showing the concentrations as a function of the optical densities (analysis by UV spectrophotometry) or of the areas under peak (HPLC analysis) is then determined. The equation of the straight line obtained can be used for determining the concentration of dissolved active principle from measurement of the optical density or of the area under peak.
The concentration used corresponds to the dose in 250 ml (i.e. 4 capsules in a 500-ml bowl). The dissolution kinetics is first investigated in simulated gastric medium of pH 4 in the dissolution test in bowls thermostated at 37° C., with paddle stirring at 75 rpm, for 1 hour with sampling at times 5, 15, 30, 45 and 60 minutes, then in intestinal medium with an increase in pH to 6.5 by adding a small volume of concentrated soda (example: 0.400 ml for 500 ml of medium at pH 4), monitoring with a pH electrode. The kinetics is monitored for 3 hours with sampling at times 75, 90, 120 and 180 minutes and each sample is filtered at 5 μm and then analyzed.
Two methods of analysis can be used depending on the sensitivity required and the dosage form under investigation: UV spectrophotometry (for active principle only) or HPLC (for active principle only or formulated).
The concentration at a time t is determined based on the previously established calibration. During analysis by UV spectrophotometry, the whole absorption spectrum is monitored at least at the end of the kinetic study. In addition, the pH of the medium is monitored at the end of the kinetic study. […]

[3] = cited from earlier work
[4] = cited from earlier work; remark: listed apart in the source
[5] = Capmul PG8 (HLB 5), oil or lipid, in Capmul PG8 (HLB 5), RT, read-out: Solubility
[6] = Captex 355, oil or lipid, in Captex 355, RT, read-out: Solubility
[7] = Cremophor RH 40 (HLB 14), 55 °C, oil or lipid, in Cremophor RH 40 (HLB 14), 55° C., read-out: Solubility
[8] = Gelucire 33/01 (HLB 1), 55 °C, oil or lipid, in Gelucire 33/01 (HLB 1), 55° C., read-out: Solubility
[9] = Gelucire 43/01 (HLB 1), 55 °C, oil or lipid, in Gelucire 43/01 (HLB 1), 55° C., read-out: Solubility
[10] = Labrafac PG, oil or lipid, in Labrafac PG, RT, read-out: Solubility
[11] = Labrafil M1944Cs, oil or lipid, in Labrafil M1944Cs, RT, read-out: Solubility
[12] = Labrasol ALF, oil or lipid, in Labrasol ALF, RT, read-out: Solubility
[13] = Lauroglycol 90, oil or lipid, in Lauroglycol 90, RT, read-out: Solubility
[14] = Lipophilic Labrafac, oil or lipid, in Lipophilic Labrafac, RT, read-out: Solubility
[15] = Miglyol 812N, oil or lipid, in Miglyol 812N, RT, read-out: Solubility
[16] = PEG 400, organic solvent or mixture, in PEG 400, RT, read-out: Solubility
[17] = propylene glycol, organic solvent or mixture, in propylene glycol, RT, read-out: Solubility
[18] = soybean oil, oil or lipid, in soybean oil, RT, read-out: Solubility
[19] = surfactant Chrem RH40 (HLB 14), capsules G24 (HCl) / G25 (base)
[20] = surfactant Pluronic L44 (HLB 12), capsules G26 (HCl) / G27 (base), pH 6.5 after jump, 37° C.
[21] = surfactant Polox 188 (HLB 29), capsules G22 (HCl) / G23 (base)
[22] = surfactant Polox 407 (HLB 22), capsules G1 (HCl) / G5 (base)
[23] = surfactant Tween 60 (HLB 15), capsules G28 (HCl) / G29 (base)

Row | SMILES | solubility [1, 5] | solubility [1, 6] | solubility [1, 7] | solubility [1, 8] | solubility [1, 9] | solubility [1, 10] | solubility [1, 11] | solubility [1, 12] | solubility [1, 13] | solubility [1, 14] | solubility [1, 15] | solubility [1, 16] | solubility [1, 17] | solubility [1, 18] | percentage of active principle released (dissolution curves, in words) [2] | % of dronedarone at 180 min [2, 19] | % of dronedarone at 180 min [2, 20] | % of dronedarone at 180 min [2, 21] | % of dronedarone at 180 min [2, 22] | % of dronedarone at 180 min [2, 23] | other results
1 | CCCCc1oc2ccc(NS(C)(=O)=O)cc2c1C(=O)c1ccc(OCCCN(CCCC)CCCC)cc1 [Dronedarone Base, 2-n-butyl-3-[4-(3-di-n-butylaminopropoxy)benzoyl]-5-methylsulfonamidobenzofuran] | 517 mg/mL (≈ 929 mM) | 167 mg/mL (≈ 299 mM) | > 313 mg/mL | 371 mg/mL (≈ 667 mM) | 259 mg/mL (≈ 465 mM) | 184 mg/mL (≈ 330 mM) | 208 mg/mL (≈ 374 mM) | 401 mg/mL (≈ 721 mM) | 311 mg/mL (≈ 558 mM) | 129 mg/mL (≈ 231 mM) | 144 mg/mL (≈ 258 mM) | 273 mg/mL (≈ 491 mM) | 18.2 mg/mL (≈ 32.7 mM) | 60.7 mg/mL (≈ 109 mM) | equivalent regardless of which nonionic surfactant is used | 85.3% | 76.38% | 71.32% | 72.89% | 81.12% | solubility ([1]; Crodamol EO (ethyl oleate), oil or lipid, in Crodamol EO (ethyl oleate), RT, read-out: Solubility): 154 mg/mL (≈ 276 mM); solubility ([1]; Gelucire 44/14 (HLB 14), 55 °C, oil or lipid, in Gelucire 44/14 (HLB 14), 55° C., read-out: Solubility): 633 mg/mL (≈ 1140 mM); solubility ([1]; Labrasol, oil or lipid, in Labrasol, RT, read-out: Solubility): > 400 mg/mL; solubility ([1]; ethanol, organic solvent or mixture, in ethanol, RT, read-out: Solubility): > 500 mg/mL; solubility ([1]; in Labrafil M1944Cs, RT): 192.6 mg/mL (≈ 346 mM); solubility ([1]; in Miglyol 812N, RT): 141.6 mg/mL (≈ 254 mM); solubility ([1]; in PEG 400, RT): 280.1 mg/mL (≈ 503 mM); solubility ([1]; in soybean oil, RT): 87.7 mg/mL (≈ 158 mM); solubility ([1]; oleic acid, oil or lipid, in Oleic acid, RT, read-out: Solubility): > 341 mg/mL; solubility ([1]; sweet almond oil, oil or lipid, in sweet almond oil, RT, read-out: Solubility): 45.2 mg/mL (≈ 81.2 mM); absolute bioavailability ([3]; taken with food): no more than 15%; absorption after oral administration ([3]; with a meal): at least 70%
2 | CCCCc1oc2ccc(NS(C)(=O)=O)cc2c1C(=O)c1ccc(OCCCN(CCCC)CCCC)cc1.Cl [Dronedarone Hydrochloride, 2-n-butyl-3-[4-(3-di-n-butylaminopropoxy)benzoyl]-5-methylsulfonamidobenzofuran hydrochloride] | 10 mg/mL | 0.0353 mg/mL | 14.8 mg/mL | 0.0962 mg/mL | 0.0445 mg/mL | 0.0416 mg/mL | 0.504 mg/mL | 4.84 mg/mL | 2.09 mg/mL | 0.0251 mg/mL | 0.0409 mg/mL | 13.2 mg/mL | 15.8 mg/mL | 0.0231 mg/mL | better profiles for an HLB between 15 and 25 | 59.01% | 49.1% | 69.82% | 90.49% | 58.32% | behaviour on dilution to 1/10 with aqueous solution buffered at pH=7 ([4]; final pH of the medium=6.7): is precipitated; solubility ([4]; room temperature, pH=7): no more than 10 μg/ml
